Values of other authors as cited in patent US20150038447A1, “ORGAN PROTECTION, PRESERVATION AND RECOVERY” (Hibernation Therapeutics, A KF LLC, priority 2007, published 2015).

What was measured:
adenosine deaminase = molecular target: T1, adenosine deaminase (Bos taurus, UniProt P56658); details: calf intestinal mucosa; read-out: Ki (competitive inhibitor of adenosine deaminase)
T1 construct: from tissue; host or cells: calf intestinal mucosa

[1] = given orally and/or intravenous at 10, 25, 50, and 100 mg/kg body weight
[2] = 400 mg daily tablets
human NK(1) receptor = human NK(1) receptor (Homo sapiens, UniProt P25103)
NK(2) receptor = molecular target: T2, NK(2) receptor (Homo sapiens, UniProt P21452); details: NK(1) versus NK(2)
T2 sequence (P21452 1-398): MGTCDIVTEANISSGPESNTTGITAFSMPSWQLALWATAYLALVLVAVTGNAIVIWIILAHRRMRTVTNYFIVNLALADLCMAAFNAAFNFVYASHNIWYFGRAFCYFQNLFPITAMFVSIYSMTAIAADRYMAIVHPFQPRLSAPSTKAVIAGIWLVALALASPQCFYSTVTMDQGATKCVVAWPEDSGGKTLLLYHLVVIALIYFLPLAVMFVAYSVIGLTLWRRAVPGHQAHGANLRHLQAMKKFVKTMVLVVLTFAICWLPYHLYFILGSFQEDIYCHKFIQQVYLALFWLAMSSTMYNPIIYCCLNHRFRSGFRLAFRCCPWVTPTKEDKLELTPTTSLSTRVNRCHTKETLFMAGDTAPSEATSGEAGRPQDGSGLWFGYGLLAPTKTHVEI

NK(3) receptor = molecular target: T3, NK(3) receptor (Homo sapiens, UniProt P29371); details: NK(1) versus NK(3)
T3 sequence (P29371 1-465): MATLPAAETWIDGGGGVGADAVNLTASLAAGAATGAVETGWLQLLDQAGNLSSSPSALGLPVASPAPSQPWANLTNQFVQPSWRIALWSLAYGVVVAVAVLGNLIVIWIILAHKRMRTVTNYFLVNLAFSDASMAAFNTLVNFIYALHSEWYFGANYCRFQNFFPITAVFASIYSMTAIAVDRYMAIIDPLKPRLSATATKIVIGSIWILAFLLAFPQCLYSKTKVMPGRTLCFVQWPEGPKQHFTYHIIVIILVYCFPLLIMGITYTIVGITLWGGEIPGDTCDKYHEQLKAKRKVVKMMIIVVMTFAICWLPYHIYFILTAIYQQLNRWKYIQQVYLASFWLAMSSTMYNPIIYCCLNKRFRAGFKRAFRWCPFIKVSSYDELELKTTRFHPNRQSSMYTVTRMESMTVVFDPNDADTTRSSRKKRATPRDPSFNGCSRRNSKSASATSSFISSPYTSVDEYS

anaesthetised rats = details: previous studies (Canyon and Dobson, 2004)
[3] = in vivo

T1 sequence (P56658 whole entry): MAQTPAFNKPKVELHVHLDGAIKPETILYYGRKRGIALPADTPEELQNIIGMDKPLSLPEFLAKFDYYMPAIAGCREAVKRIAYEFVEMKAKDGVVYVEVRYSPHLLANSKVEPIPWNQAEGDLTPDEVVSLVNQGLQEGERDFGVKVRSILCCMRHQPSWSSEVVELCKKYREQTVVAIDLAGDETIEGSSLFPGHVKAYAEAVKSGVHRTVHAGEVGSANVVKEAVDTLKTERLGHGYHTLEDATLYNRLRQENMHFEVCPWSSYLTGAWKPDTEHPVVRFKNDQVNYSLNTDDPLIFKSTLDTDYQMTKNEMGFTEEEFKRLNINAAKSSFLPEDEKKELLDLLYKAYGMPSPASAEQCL
Chain of human NK(1) receptor (P25103 whole entry): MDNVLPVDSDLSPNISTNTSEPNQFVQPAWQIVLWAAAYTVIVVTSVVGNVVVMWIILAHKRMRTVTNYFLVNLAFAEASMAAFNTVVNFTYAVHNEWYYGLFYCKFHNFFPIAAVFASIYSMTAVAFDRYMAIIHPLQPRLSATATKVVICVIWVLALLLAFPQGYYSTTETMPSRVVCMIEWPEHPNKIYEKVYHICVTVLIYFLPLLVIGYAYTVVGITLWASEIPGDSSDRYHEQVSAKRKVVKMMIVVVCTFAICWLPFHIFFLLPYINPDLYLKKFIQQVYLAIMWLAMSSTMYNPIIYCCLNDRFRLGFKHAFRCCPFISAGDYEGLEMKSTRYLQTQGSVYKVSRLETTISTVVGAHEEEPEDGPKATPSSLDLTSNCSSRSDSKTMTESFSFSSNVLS

Question: For NC(=O)c1ncn([C@@H]2O[C@H](CO)[C@@H](O)[C@H]2O)c1N [Acadesine, 5-amino-4-imidazole carboxamide ribonucleoside], which Ki (adenosine deaminase) is on record?
Answer: 362 µM

Question: What about the safety in humans [1] of the same compound?
Answer: safe

Question: With OCCN(CCO)c1nc(N2CCCCC2)c2nc(N(CCO)CCO)nc(N3CCCCC3)c2n1 [Dipyridamole] as the compound, how does the plasma level [2] read?
Answer: about 0.4 μg/ml

Question: And the “plasma level (concentration)” value [2]?
Answer: ~800 nM

Question: What does the source list for Cc1cccc(C)c1NC(=O)C[C@H]1CCN(C(=O)c2cc(C(F)(F)F)cc(C(F)(F)F)c2)[C@@H](Cc2ccccc2)C1.O=C(O)C[C@H](O)C(=O)O (relative stereo) [R116301, (2R-trans)-4-[1-[3,5-bis(trifluoromethyl)benzoyl]-2-(phenylmethyl)-4-piperidinyl]-N-(2,6-dimethylphenyl)-1-acetamide (S)-Hydroxybutanedioate]?
Answer: Ki (human NK(1) receptor): 0.00045 µM; selectivity toward NK(2) receptor (NK(2) receptor): over 200 fold; selectivity toward NK(3) receptor (NK(3) receptor): over 200 fold

Question: Which “half life in the blood” value does the source give for Nc1ncnc2c1ncn2[C@@H]1O[C@H](CO)[C@@H](O)[C@H]1O [adenosine] here?
Answer: about 10 seconds

Question: What about the “animals that die during 30 min ischaemia from VF” value (anaesthetised rats) of the same compound?
Answer: about 50%

Question: With CSCC[C@@H]1NC(=O)[C@H](CC(C)C)NC(=O)[C@H](CCCNC(=N)N)NC(=O)[C@H](CO)NC(=O)[C@@H]2CSSC[C@@H]3NC(=O)[C@H](CO)NC(=O)CNC(=O)[C@H]([C@@H](C)O)NC(=O)[C@H](CSSC[C@H](N)C(=O)N[C@@H](CCCCN)C(=O)NCC(=O)N[C@@H](CCCCN)C(=O)NCC(=O)N[C@@H](C)C(=O)N[C@@H](CCCCN)C(=O)N2)NC(=O)[C@H](CSSC[C@@H](C(N)=O)NC(=O)[C@H](CCCCN)NC(=O)CNC(=O)[C@H](CO)NC(=O)[C@H](CCCNC(=N)N)NC3=O)NC(=O)[C@H](CC(=O)O)NC(=O)[C@H](Cc2ccc(O)cc2)NC1=O [Omega conotoxin MVIIA] as the compound, how does the “potency as an analgesic relative to morphine” value [3] read?
Answer: 100-1000 fold
